# Assay results published in the kinase profiling compilation of Christmann-Franck et al. (2016).
# Several values for one entry are separate records, joined by “and”; a condition that tells them apart may be missing. Equal entries are not always repeated.
# Experiments:
# Test in all cases: radiometric filter-binding kinase assay, Kinase HotSpot
# Settings in all cases: compound 0.5 µM; ATP 10 µM
# CSK (human) = CSK (human) (UniProt P41240)
# PHKG2 (human) = PHKG2 (human) (UniProt P15735)
# IKBKE (human) = IKBKE (human) (UniProt Q14164)
# LYN (human) = LYN (human) (UniProt P07948)
# LYN (human), sequence (P07948 whole entry, looked up): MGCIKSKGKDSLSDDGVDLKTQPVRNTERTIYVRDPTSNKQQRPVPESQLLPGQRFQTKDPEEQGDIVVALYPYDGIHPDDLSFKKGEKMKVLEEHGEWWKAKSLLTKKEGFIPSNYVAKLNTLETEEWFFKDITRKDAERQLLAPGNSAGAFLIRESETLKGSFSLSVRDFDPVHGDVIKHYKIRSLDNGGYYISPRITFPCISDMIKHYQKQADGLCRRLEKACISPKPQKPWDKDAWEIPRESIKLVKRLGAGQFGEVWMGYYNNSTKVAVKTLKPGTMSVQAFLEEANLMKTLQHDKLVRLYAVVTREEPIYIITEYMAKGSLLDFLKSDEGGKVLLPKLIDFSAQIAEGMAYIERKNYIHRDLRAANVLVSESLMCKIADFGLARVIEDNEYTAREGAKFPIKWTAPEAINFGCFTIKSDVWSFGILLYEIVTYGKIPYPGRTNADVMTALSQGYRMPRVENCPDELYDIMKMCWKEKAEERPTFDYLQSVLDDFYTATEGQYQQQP
# MAP3K3 (human) = MAP3K3 (human) (UniProt Q99759)
# MAP3K9 (human) = MAP3K9 (human) (UniProt P80192)
# BLK (human) = BLK (human) (UniProt P51451)
# INSR (human) = INSR (human) (UniProt P06213)
# AURKC (human) = AURKC (human) (UniProt Q9UQB9)
# PRKCB1 (human) = PRKCB1 (human) (UniProt P05771)
# PRKCE (human) = PRKCE (human) (UniProt Q02156)
# PAK7 (human) = PAK7 (human) (UniProt Q9P286)
# STK25 (human) = STK25 (human) (UniProt O00506)
# EPHA5 (human) = EPHA5 (human) (UniProt P54756)
# DCLK2 (human) = DCLK2 (human) (UniProt Q8N568)
# TNK2 (human) = TNK2 (human) (UniProt Q07912)
# PASK (human) = PASK (human) (UniProt Q96RG2)
# LIMK1 (human) = LIMK1 (human) (UniProt P53667)
# MARK1 (human) = MARK1 (human) (UniProt Q9P0L2)
# CAMK4 (human) = CAMK4 (human) (UniProt Q16566)
# STK10 (human) = STK10 (human) (UniProt O94804)
# BMX (human) = BMX (human) (UniProt P51813)
# NUAK2 (human) = NUAK2 (human) (UniProt Q9H093)
# DAPK2 (human) = DAPK2 (human) (UniProt Q9UIK4)
# LRRK2 (human) = LRRK2 (human) (UniProt Q5S007)
# PTK2B (human) = PTK2B (human) (UniProt Q14289)
# MAP3K11 (human) = MAP3K11 (human) (UniProt Q16584)
# GRK6 (human) = GRK6 (human) (UniProt P43250)
# CDK4 CCND3 (human) = CDK4 CCND3 (human) (UniProt P30281+P11802)
# CDK4 CCND3 (human), sequence (P11802 whole entry, looked up): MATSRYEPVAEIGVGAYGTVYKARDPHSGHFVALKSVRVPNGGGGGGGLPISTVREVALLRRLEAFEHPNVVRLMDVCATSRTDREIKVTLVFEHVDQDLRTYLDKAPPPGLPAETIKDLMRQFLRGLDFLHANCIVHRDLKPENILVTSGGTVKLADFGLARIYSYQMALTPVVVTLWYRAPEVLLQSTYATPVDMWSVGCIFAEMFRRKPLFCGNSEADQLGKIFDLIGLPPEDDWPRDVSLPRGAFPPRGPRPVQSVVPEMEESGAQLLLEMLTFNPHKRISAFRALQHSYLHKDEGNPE
# CDK4 CCND3 (human), sequence (P30281 whole entry, looked up): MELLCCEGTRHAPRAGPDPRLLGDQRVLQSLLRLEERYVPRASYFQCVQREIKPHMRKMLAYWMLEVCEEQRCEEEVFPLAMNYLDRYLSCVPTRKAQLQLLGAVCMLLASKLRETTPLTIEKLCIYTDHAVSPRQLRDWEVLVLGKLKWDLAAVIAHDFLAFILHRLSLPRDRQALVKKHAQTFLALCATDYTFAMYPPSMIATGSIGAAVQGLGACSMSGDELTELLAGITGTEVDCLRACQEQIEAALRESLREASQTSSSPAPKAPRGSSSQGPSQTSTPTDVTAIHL
# CDK1 CCNA2 (human) = CDK1 CCNA2 (human) (UniProt P06493+P20248)
# CDK1 CCNA2 (human), sequence (P06493 whole entry, looked up): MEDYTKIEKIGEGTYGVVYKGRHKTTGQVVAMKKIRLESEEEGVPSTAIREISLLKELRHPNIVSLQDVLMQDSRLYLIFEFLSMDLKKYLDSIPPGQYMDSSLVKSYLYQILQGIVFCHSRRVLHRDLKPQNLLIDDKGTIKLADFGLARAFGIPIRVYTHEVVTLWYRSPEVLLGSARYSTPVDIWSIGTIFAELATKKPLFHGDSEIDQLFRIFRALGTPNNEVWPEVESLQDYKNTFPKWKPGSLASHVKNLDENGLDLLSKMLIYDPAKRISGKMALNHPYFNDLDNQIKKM
# CDK1 CCNA2 (human), sequence (P20248 whole entry, looked up): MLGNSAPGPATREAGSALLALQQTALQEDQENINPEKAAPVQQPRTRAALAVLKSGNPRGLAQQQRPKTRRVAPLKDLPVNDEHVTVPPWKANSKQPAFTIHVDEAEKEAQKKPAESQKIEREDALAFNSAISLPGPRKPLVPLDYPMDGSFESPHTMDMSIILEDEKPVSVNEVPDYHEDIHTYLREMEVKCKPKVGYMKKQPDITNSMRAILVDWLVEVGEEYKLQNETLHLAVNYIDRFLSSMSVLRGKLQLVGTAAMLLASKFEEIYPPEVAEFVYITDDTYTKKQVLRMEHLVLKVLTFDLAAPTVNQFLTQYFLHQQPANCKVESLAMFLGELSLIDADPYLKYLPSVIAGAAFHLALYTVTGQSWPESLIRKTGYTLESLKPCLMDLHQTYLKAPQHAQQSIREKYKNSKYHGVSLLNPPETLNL
# STK4 (human) = STK4 (human) (UniProt Q13043)
# GRK4 (human) = GRK4 (human) (UniProt P32298)
# GRK4 (human), sequence (P32298 whole entry, looked up): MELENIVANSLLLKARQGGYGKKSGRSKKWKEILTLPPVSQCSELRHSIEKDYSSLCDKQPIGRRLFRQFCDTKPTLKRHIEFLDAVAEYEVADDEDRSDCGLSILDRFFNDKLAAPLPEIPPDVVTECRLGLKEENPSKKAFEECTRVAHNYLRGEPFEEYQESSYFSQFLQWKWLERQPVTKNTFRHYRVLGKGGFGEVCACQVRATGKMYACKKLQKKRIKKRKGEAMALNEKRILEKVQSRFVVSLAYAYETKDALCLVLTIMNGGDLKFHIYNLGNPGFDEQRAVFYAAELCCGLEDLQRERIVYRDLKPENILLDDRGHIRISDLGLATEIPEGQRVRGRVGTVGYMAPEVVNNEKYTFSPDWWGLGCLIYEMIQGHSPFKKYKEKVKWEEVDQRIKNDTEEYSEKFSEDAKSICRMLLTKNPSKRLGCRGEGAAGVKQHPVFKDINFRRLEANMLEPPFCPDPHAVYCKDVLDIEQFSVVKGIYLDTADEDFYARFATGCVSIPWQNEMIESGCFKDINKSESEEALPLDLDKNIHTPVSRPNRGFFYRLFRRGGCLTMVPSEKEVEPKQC
# STK11 (human) = STK11 (human) (UniProt Q15831)
# DYRK4 (human) = DYRK4 (human) (UniProt Q9NR20)
# TSSK1B (human) = TSSK1B (human) (UniProt Q9BXA7)
# NEK3 (human) = NEK3 (human) (UniProt P51956)
# ACVRL1 (human) = ACVRL1 (human) (UniProt P37023)
# NEK1 (human) = NEK1 (human) (UniProt Q96PY6)
# NEK1 (human), sequence (Q96PY6 whole entry, looked up): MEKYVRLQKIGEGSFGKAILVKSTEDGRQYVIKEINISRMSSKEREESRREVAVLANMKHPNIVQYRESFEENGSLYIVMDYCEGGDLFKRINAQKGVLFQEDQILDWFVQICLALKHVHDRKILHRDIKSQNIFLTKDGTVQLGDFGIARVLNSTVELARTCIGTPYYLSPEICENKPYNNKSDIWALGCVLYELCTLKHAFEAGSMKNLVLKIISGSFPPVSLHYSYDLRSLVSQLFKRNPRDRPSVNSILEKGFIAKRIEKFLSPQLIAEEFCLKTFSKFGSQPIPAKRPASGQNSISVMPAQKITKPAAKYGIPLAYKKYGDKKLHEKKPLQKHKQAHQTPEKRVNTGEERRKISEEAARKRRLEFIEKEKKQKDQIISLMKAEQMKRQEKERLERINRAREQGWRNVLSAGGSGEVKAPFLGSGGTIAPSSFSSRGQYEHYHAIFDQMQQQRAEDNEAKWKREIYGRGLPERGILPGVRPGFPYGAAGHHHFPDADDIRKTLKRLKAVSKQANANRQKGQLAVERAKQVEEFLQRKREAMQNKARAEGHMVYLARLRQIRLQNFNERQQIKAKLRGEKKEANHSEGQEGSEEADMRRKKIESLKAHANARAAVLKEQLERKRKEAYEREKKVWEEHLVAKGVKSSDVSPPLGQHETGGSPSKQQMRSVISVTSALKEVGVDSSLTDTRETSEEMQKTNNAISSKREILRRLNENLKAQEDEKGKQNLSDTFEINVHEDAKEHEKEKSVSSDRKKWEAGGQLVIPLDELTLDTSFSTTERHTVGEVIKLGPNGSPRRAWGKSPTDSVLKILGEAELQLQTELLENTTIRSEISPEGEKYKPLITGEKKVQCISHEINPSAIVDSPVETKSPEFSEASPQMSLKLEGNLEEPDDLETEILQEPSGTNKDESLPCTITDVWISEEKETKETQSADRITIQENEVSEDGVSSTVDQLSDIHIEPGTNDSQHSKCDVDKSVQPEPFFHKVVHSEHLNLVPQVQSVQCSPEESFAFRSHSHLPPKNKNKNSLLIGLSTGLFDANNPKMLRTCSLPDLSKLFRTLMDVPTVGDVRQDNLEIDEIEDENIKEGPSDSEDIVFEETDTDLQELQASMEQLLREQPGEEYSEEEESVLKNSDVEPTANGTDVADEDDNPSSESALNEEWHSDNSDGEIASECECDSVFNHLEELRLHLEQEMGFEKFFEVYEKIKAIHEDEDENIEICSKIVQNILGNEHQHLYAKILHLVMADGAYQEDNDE
# TAOK1 (human) = TAOK1 (human) (UniProt Q7L7X3)
# MARK2 (human) = MARK2 (human) (UniProt Q7KZI7)
# MARK2 (human), sequence (Q7KZI7 whole entry, looked up): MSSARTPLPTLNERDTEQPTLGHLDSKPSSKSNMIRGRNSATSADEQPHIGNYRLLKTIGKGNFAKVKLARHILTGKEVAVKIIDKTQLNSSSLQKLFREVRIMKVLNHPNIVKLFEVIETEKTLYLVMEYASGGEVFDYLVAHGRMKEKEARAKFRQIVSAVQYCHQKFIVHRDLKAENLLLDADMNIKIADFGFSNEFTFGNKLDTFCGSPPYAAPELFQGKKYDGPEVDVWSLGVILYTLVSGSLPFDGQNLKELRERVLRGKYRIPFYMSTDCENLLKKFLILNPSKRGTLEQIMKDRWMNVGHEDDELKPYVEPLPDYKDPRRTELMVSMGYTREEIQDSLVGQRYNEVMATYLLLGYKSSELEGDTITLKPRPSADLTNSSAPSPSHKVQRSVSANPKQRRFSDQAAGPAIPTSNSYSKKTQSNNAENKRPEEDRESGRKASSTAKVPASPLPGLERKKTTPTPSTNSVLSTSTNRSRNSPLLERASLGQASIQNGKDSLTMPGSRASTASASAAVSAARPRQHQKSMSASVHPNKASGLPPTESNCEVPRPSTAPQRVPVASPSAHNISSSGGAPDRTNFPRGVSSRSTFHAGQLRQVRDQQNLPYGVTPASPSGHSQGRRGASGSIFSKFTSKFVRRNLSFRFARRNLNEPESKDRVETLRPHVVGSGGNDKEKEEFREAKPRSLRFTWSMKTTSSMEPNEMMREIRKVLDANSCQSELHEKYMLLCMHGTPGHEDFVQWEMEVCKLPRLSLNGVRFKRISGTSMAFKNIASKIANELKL
# PRKCG (human) = PRKCG (human) (UniProt P05129)
# CDK4 CCND1 (human) = CDK4 CCND1 (human) (UniProt P24385+P11802)
# CDK4 CCND1 (human), sequence (P11802 whole entry, looked up): as the sequence (P11802 whole entry, looked up) above
# CDK4 CCND1 (human), sequence (P24385 whole entry, looked up): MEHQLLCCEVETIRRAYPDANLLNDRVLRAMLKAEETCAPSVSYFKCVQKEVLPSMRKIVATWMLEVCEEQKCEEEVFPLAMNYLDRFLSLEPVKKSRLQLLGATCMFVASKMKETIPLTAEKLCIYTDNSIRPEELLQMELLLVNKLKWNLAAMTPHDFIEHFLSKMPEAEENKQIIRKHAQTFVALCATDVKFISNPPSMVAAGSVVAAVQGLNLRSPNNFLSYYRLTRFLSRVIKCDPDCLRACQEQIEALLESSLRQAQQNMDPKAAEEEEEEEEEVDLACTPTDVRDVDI
structure (smiles),measurement,setting,value
CCN1/C(=C/C(C)=O)Sc2ccc(OC)cc21,residual activity,CSK (human),104%
same,residual activity,PHKG2 (human),94.6%
same,residual activity,IKBKE (human),99%
same,residual activity,LYN (human),101% and 94.4%
same,residual activity,MAP3K3 (human),114%
same,residual activity,MAP3K9 (human),98.8%
same,residual activity,BLK (human),95.4%
same,residual activity,INSR (human),101%
same,residual activity,AURKC (human),94.8%
same,residual activity,PRKCB1 (human),99.4%
same,residual activity,PRKCE (human),95.2%
same,residual activity,PAK7 (human),84.7%
same,residual activity,STK25 (human),98%
same,residual activity,EPHA5 (human),97.8%
same,residual activity,DCLK2 (human),97.9%
same,residual activity,TNK2 (human),102%
same,residual activity,PASK (human),72.8%
same,residual activity,LIMK1 (human),108%
same,residual activity,MARK1 (human),91%
same,residual activity,CAMK4 (human),99.9%
same,residual activity,STK10 (human),96.8%
same,residual activity,BMX (human),105%
same,residual activity,NUAK2 (human),107%
same,residual activity,DAPK2 (human),90.3%
same,residual activity,LRRK2 (human),98.1%
same,residual activity,PTK2B (human),97.8%
same,residual activity,MAP3K11 (human),102%
same,residual activity,GRK6 (human),103%
same,residual activity,CDK4 CCND3 (human),97.4%
same,residual activity,CDK1 CCNA2 (human),97.5%
same,residual activity,STK4 (human),97.8%
same,residual activity,GRK4 (human),96.2%
same,residual activity,STK11 (human),86.6%
same,residual activity,DYRK4 (human),82.3%
same,residual activity,TSSK1B (human),110%
same,residual activity,NEK3 (human),82.5%
same,residual activity,ACVRL1 (human),102%
same,residual activity,NEK1 (human),90.1%
same,residual activity,TAOK1 (human),92.4%
same,residual activity,MARK2 (human),89.5%
same,residual activity,PRKCG (human),75.4%
same,residual activity,CDK4 CCND1 (human),92.1%
O=c1cc(N2CCNCC2)oc2c(-c3ccccc3)cccc12,residual activity,CSK (human),89.7%
same,residual activity,PHKG2 (human),96.9%
same,residual activity,IKBKE (human),88.1%
same,residual activity,LYN (human),101% and 95.8%
same,residual activity,MAP3K3 (human),109%
same,residual activity,MAP3K9 (human),101%
same,residual activity,BLK (human),122%
same,residual activity,INSR (human),101%
same,residual activity,AURKC (human),97.6%
same,residual activity,PRKCB1 (human),91.6%
same,residual activity,PRKCE (human),104%
same,residual activity,PAK7 (human),104%
same,residual activity,STK25 (human),116%
same,residual activity,EPHA5 (human),109%
same,residual activity,DCLK2 (human),116%
same,residual activity,TNK2 (human),90.7%
same,residual activity,PASK (human),93%
same,residual activity,LIMK1 (human),108%
same,residual activity,MARK1 (human),99.3%
same,residual activity,CAMK4 (human),104%
same,residual activity,STK10 (human),94.3%
same,residual activity,BMX (human),98%
same,residual activity,NUAK2 (human),89.2%
same,residual activity,DAPK2 (human),94%
same,residual activity,LRRK2 (human),101%
same,residual activity,PTK2B (human),88.3%
same,residual activity,MAP3K11 (human),97.8%
same,residual activity,GRK6 (human),89.6%
same,residual activity,CDK4 CCND3 (human),101%
same,residual activity,CDK1 CCNA2 (human),84.8%
same,residual activity,STK4 (human),88.7%
same,residual activity,GRK4 (human),106%
same,residual activity,STK11 (human),101%
same,residual activity,DYRK4 (human),94.7%
same,residual activity,TSSK1B (human),89.5%
same,residual activity,NEK3 (human),106%
same,residual activity,ACVRL1 (human),106%
same,residual activity,NEK1 (human),82.8%
same,residual activity,TAOK1 (human),90.8%
same,residual activity,MARK2 (human),105%
same,residual activity,PRKCG (human),96.1%
same,residual activity,CDK4 CCND1 (human),115%
O=C(NC(NC(=S)Nc1ccc(F)c([N+](=O)[O-])c1)C(Cl)(Cl)Cl)C(c1ccccc1)c1ccccc1 (stereo not drawn),residual activity,CSK (human),99.3%
same,residual activity,PHKG2 (human),109%
same,residual activity,IKBKE (human),106%
same,residual activity,LYN (human),103% and 116%
same,residual activity,MAP3K3 (human),118%
same,residual activity,MAP3K9 (human),94%
same,residual activity,BLK (human),110%
same,residual activity,INSR (human),100%
same,residual activity,AURKC (human),93.8%
same,residual activity,PRKCB1 (human),103%
same,residual activity,PRKCE (human),109%
same,residual activity,PAK7 (human),104%
same,residual activity,STK25 (human),96.2%
same,residual activity,EPHA5 (human),107%
same,residual activity,DCLK2 (human),108%
same,residual activity,TNK2 (human),98%
same,residual activity,PASK (human),104%
same,residual activity,LIMK1 (human),94.5%
same,residual activity,MARK1 (human),101%
same,residual activity,CAMK4 (human),98.5%
same,residual activity,STK10 (human),108%
same,residual activity,BMX (human),102%
same,residual activity,NUAK2 (human),108%
same,residual activity,DAPK2 (human),103%
same,residual activity,LRRK2 (human),99.3%
same,residual activity,PTK2B (human),102%
same,residual activity,MAP3K11 (human),102%
same,residual activity,GRK6 (human),97.5%
same,residual activity,CDK4 CCND3 (human),93.7%
same,residual activity,CDK1 CCNA2 (human),101%
same,residual activity,STK4 (human),96.2%
same,residual activity,GRK4 (human),101%
same,residual activity,STK11 (human),94.2%
same,residual activity,DYRK4 (human),104%
same,residual activity,TSSK1B (human),93.4%
same,residual activity,NEK3 (human),96.2%
same,residual activity,ACVRL1 (human),107%
same,residual activity,NEK1 (human),101%
same,residual activity,TAOK1 (human),104%
same,residual activity,MARK2 (human),92.3%
same,residual activity,PRKCG (human),99.8%
same,residual activity,CDK4 CCND1 (human),116%
NC(=O)c1ccc(N(C(N)=O)c2c(F)cccc2F)nc1-c1ccc(F)cc1F,residual activity,CSK (human),90%
same,residual activity,PHKG2 (human),93.1%
same,residual activity,IKBKE (human),88%
same,residual activity,LYN (human),106% and 98.1%
same,residual activity,MAP3K3 (human),118%
same,residual activity,MAP3K9 (human),112%
same,residual activity,BLK (human),100%
same,residual activity,INSR (human),104%
same,residual activity,AURKC (human),83.8%
same,residual activity,PRKCB1 (human),86.1%
same,residual activity,PRKCE (human),101%
same,residual activity,PAK7 (human),96.4%
same,residual activity,STK25 (human),97.1%
same,residual activity,EPHA5 (human),105%
same,residual activity,DCLK2 (human),97.5%
same,residual activity,TNK2 (human),96.1%
same,residual activity,PASK (human),103%
same,residual activity,LIMK1 (human),98.5%
same,residual activity,MARK1 (human),132%
same,residual activity,CAMK4 (human),91.9%
same,residual activity,STK10 (human),93.8%
same,residual activity,BMX (human),108%
same,residual activity,NUAK2 (human),98.7%
same,residual activity,DAPK2 (human),86.8%
same,residual activity,LRRK2 (human),82%
same,residual activity,PTK2B (human),102%
same,residual activity,MAP3K11 (human),105%
same,residual activity,GRK6 (human),97.1%
same,residual activity,CDK4 CCND3 (human),98.4%
same,residual activity,CDK1 CCNA2 (human),101%
same,residual activity,STK4 (human),101%
same,residual activity,GRK4 (human),90.7%
same,residual activity,STK11 (human),99.5%
same,residual activity,DYRK4 (human),96.3%
same,residual activity,TSSK1B (human),83%
same,residual activity,NEK3 (human),96%
same,residual activity,ACVRL1 (human),99.3%
same,residual activity,NEK1 (human),69.6%
same,residual activity,TAOK1 (human),96.2%
same,residual activity,MARK2 (human),131%
same,residual activity,PRKCG (human),91.3%
same,residual activity,CDK4 CCND1 (human),96.8%
